{
  "source": "ChEMBL document CHEMBL5120957",
  "about": "“SARS-CoV-2: Novel Therapeutic Approaches for Diagnosis and Treatment” (ACS Med Chem Lett, 2022)",
  "data": [
    {"target": "Integrin alpha-V/beta-6 (Homo sapiens, UniProt P06756+P18564)", "sequence (P06756 31-889 limits assumed)": "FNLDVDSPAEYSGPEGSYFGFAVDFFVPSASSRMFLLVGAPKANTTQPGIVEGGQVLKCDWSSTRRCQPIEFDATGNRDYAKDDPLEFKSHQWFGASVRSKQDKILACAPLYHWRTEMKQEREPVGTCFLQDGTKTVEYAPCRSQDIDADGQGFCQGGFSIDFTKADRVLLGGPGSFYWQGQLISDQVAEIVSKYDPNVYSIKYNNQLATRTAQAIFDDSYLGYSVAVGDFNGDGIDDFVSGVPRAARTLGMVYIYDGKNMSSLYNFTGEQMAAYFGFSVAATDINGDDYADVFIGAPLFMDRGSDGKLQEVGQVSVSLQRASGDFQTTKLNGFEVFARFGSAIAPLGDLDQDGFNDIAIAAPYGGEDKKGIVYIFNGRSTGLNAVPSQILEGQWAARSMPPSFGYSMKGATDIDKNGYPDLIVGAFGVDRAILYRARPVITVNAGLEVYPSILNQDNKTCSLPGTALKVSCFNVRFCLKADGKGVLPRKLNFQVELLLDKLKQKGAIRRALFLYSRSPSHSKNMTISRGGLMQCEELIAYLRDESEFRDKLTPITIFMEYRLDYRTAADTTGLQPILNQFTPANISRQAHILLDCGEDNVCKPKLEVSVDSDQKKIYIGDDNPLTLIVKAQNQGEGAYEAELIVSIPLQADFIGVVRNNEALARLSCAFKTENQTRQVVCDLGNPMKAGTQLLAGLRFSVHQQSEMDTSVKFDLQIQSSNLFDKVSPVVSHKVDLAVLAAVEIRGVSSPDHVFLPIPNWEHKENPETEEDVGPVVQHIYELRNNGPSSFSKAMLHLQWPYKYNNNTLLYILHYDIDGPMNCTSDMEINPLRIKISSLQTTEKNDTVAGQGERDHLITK", "sequence (P06756 891-1048 limits assumed)": "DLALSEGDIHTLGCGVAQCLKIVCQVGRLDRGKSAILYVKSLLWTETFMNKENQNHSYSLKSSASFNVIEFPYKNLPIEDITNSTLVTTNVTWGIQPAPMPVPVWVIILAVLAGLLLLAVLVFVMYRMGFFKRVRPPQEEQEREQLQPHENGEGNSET", "sequence (P18564 22-788 limits assumed)": "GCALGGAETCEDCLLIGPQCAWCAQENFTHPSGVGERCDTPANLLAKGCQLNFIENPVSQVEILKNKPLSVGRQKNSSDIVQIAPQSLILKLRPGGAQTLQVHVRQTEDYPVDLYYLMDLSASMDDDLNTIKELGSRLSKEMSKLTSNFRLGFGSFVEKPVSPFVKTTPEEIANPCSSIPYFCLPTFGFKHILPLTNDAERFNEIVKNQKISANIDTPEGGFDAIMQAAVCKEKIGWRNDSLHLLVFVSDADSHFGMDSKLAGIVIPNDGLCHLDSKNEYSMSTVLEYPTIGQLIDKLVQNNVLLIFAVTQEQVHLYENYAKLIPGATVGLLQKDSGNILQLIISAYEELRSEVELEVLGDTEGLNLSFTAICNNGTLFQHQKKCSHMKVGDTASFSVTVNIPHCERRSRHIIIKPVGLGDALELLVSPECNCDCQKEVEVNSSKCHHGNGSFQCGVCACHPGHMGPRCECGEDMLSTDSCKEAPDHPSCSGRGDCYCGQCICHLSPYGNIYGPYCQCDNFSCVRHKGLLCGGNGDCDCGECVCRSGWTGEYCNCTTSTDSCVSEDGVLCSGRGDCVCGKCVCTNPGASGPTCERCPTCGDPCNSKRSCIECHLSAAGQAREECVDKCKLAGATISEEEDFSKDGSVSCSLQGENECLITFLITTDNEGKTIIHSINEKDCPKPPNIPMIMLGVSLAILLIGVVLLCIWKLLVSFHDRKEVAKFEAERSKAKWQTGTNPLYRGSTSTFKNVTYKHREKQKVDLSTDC", "assay": "Inhibition of recombinant human alphavbeta6 integrin incubated for 2 hrs by microplate reader assay", "assay_type": "protein-complex assay", "units": {"IC50": "nM"}, "values": [
      {"smiles": "COCCN(CCCCc1ccc2c(n1)NCCC2)CC[C@H](Nc1ncnc2ccccc12)C(=O)O", "note": "[BEXOTEGRAST]", "IC50": "< 50"},
      {"smiles": "COCCN(CCCCc1ccc2c(n1)NCCC2)CC[C@H](Nc1ncnc2cc(C(F)(F)F)ccc12)C(=O)O", "IC50": 50},
      {"smiles": "O=C(O)[C@H](CCN(CCCCc1ccc2c(n1)NCCC2)CCC(F)F)Nc1ncnc2ccccc12", "IC50": "< 50"},
      {"smiles": "COCCN(CCCCc1ccc2c(n1)NCCC2)CC[C@H](Nc1ncnc2cc(F)ccc12)C(=O)O", "IC50": "< 50"},
      {"smiles": "COCCN(CCCCc1ccc2c(n1)NCCC2)CC[C@H](Nc1cc(-n2cccn2)ncn1)C(=O)O", "IC50": "< 50"},
      {"smiles": "CO[C@H](C)CN(CCCCc1ccc2c(n1)NCCC2)CC[C@H](Nc1ncnc2ccccc12)C(=O)O", "IC50": "< 50"}
    ]}
  ]
}
